Assay in all cases: Kinase activity test, parent compound vs phenol metabolite X
What all share (type): biochemical

For assay [1], the target named is RET (Homo sapiens, UniProt P07949). An excerpt:
(§1) In this tests, the parent compound, ex.102 of […] is compared with the corresponding phenol metabolite.

Assay [2] concerns the target T1, EphB4 (Homo sapiens, UniProt P54760).
T1 sequence (P54760 16-987): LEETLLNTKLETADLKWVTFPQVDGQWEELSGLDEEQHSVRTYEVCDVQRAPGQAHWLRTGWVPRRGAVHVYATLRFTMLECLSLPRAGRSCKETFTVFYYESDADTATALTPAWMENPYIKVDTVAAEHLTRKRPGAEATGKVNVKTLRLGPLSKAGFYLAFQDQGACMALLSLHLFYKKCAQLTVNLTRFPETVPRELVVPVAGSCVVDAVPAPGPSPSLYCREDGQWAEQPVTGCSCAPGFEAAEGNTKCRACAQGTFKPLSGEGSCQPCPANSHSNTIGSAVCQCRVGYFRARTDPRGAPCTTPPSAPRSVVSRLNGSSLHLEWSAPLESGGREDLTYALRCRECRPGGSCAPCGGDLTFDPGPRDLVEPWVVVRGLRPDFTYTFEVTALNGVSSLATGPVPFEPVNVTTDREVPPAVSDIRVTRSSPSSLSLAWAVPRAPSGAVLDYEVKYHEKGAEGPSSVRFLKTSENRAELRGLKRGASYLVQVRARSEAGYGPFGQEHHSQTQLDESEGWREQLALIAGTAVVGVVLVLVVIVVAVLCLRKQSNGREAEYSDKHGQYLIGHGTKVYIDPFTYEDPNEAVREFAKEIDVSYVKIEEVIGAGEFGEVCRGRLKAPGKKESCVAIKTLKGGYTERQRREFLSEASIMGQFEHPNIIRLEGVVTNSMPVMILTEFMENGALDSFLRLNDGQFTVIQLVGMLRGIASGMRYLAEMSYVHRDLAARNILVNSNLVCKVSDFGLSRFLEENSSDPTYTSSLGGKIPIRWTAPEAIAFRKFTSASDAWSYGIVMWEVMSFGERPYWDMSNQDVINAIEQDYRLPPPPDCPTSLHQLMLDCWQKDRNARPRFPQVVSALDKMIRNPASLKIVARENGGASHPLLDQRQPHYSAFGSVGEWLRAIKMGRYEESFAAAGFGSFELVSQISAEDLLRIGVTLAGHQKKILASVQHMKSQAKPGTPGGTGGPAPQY
Source text: as §1

In assay [3] the target is C-Abl (Homo sapiens, UniProt P00519).
Chain of C-Abl (P00519 whole entry): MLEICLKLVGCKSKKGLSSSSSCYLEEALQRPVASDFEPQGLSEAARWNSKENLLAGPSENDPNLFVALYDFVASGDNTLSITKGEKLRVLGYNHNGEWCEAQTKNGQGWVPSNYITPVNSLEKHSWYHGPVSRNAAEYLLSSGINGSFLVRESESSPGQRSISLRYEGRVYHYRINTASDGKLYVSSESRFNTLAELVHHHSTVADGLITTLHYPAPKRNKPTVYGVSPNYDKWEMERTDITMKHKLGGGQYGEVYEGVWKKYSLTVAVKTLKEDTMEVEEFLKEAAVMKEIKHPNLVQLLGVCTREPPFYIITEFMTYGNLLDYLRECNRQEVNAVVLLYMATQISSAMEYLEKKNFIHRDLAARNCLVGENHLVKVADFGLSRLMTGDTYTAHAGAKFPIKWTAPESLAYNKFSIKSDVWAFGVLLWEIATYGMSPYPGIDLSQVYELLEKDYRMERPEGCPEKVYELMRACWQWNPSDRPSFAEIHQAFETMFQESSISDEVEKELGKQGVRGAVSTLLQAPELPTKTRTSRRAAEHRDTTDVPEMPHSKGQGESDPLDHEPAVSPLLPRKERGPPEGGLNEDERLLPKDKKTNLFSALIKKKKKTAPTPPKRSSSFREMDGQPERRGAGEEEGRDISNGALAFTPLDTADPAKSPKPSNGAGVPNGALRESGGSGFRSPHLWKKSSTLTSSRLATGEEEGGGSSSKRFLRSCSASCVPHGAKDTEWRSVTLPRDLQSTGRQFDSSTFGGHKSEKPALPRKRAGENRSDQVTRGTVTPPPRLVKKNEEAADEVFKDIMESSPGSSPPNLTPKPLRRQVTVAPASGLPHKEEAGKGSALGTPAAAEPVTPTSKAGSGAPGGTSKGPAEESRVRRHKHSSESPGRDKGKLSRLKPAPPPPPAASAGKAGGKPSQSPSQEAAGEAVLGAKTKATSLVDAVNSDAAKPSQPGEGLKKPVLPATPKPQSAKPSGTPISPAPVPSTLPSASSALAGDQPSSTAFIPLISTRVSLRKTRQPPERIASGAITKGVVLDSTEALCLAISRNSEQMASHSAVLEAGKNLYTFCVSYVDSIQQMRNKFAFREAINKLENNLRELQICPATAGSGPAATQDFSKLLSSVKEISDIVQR
Source text: as §1

Assay [4] concerns the target c-src (Homo sapiens, UniProt P12931).
Source text: as §1

Assay [5] deals with InsR (Homo sapiens, UniProt P06213).
Chain of InsR (P06213 28-1382, species assumed): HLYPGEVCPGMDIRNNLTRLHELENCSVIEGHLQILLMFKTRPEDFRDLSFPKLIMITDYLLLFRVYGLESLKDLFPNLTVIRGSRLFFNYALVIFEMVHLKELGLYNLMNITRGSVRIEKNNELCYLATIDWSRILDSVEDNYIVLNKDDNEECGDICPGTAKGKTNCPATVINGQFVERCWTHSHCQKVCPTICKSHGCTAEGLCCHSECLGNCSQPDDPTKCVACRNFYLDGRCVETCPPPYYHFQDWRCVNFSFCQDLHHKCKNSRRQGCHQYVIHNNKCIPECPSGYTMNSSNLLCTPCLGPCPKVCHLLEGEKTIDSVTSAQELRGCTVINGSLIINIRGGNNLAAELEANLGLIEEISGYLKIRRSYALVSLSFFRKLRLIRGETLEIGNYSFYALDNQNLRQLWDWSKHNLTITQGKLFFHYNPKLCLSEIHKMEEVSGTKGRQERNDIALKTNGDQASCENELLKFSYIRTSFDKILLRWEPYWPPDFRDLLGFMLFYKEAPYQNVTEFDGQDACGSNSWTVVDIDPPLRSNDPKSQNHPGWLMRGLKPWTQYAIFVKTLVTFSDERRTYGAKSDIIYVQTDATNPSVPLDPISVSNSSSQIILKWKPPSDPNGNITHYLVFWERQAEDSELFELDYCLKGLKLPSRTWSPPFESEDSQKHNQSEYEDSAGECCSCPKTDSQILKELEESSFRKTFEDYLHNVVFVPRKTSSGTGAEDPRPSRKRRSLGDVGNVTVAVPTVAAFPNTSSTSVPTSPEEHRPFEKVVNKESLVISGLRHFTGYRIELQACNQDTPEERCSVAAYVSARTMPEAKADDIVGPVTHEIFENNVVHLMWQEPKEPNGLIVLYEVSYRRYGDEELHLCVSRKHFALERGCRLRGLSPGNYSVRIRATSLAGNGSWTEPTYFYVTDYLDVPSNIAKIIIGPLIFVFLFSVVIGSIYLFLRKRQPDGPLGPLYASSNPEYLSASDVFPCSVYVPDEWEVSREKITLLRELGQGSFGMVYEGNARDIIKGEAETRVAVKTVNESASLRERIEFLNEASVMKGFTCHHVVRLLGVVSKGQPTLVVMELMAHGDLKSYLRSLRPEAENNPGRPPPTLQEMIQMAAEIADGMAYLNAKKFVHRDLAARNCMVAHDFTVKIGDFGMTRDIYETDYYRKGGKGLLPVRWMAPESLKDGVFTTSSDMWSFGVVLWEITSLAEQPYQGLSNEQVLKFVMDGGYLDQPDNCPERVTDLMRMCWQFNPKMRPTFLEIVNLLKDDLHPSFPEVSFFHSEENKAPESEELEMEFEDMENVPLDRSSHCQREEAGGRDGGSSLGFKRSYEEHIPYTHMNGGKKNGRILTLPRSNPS

Chain of RET (P07949 29-1114, species assumed): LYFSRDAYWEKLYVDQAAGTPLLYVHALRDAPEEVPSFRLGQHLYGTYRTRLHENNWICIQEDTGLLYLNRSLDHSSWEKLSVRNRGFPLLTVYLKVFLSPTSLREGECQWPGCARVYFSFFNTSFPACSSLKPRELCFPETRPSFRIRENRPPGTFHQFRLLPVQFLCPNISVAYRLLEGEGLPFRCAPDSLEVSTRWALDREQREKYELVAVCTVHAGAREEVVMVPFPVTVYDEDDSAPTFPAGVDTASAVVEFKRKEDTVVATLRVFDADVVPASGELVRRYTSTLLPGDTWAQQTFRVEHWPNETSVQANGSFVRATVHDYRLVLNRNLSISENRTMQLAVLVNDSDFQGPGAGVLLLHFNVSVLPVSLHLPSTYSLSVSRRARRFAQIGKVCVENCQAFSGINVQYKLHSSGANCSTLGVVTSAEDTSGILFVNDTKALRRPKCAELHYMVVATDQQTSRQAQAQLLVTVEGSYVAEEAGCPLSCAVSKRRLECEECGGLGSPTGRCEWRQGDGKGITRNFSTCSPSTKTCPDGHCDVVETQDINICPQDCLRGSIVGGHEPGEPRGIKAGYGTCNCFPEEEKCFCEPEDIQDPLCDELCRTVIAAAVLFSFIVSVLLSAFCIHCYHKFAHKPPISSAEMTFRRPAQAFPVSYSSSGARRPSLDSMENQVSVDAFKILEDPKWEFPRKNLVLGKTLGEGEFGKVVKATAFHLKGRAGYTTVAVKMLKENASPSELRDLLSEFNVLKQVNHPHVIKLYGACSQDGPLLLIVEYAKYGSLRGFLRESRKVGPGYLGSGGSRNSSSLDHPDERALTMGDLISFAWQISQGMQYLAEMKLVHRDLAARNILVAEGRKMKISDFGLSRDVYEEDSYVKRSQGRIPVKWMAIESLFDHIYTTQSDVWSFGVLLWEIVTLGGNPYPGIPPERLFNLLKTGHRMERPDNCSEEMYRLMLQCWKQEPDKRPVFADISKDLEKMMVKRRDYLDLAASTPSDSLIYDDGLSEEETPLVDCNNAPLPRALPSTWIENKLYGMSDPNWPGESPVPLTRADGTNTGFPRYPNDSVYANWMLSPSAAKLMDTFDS
Chain of c-src (P12931 whole entry, species assumed): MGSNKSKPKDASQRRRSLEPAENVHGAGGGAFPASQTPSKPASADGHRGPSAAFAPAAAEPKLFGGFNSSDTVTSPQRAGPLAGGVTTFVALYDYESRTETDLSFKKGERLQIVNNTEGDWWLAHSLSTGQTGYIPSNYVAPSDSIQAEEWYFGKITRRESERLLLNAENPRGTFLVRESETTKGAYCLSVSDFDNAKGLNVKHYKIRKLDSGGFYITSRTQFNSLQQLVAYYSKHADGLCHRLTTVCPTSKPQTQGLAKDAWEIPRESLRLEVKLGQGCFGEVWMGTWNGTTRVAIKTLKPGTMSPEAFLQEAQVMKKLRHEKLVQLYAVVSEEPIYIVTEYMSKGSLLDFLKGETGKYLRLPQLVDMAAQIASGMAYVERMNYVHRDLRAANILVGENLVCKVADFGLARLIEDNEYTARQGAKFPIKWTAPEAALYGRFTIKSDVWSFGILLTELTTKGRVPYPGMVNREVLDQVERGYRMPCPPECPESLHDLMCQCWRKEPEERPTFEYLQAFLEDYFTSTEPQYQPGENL

`Nc1ncnc2c1c(-c1cccc(O)c1)cn2[C@H]1C[C@@H](CN2CCC2)C1` [Phenol metabolite X, cis-3-[4-amino-7-(3-azetidin-1-ylmethyl-cyclobutyl)-7H-pyrrolo[2,3-d]pyrimidin-5-yl]-phenol]: the IC50 in assay [1] stood at 8 nM; in assay [2], 9 nM; in assay [3], 47 nM; in assay [4] it was 4 nM; in assay [5], 3800 nM.

As usually defined, the IC50 is the concentration at which inhibition is half-maximal.

Values taken from patent US20120165310A1, “ETHER DERIVATIVES OF BICYCLIC HETEROARYLS” (NOVARTIS AG, priority 2009, published 2012).
